In test [1] the test system is H4. In words: Luminescence Cell-Based Dose Response HTS to Identify Activators of 5'UTR Stem-Loop Driven Prion Protein mRNA Translation in H4 Neuroglioblastoma Cells. [Related pubchem assays: 1829 (Project Summary), 1814 (Primary HTS)]. Type of test: functional. The following applies: Homo sapiens.
Test [2] in a line: Luminescence Cell-Based Dose Confirmation HTS to Identify Activators of 5'UTR Stem-Loop Driven Alpha-Synuclein mRNA Translation in H4 Neuroglioblastoma Cells. [Related pubchem assays: 1829 (Project Summary), 1814 (Primary HTS)]. Type of test: functional.
The nature of test [3]: Luminescence Cell-Based Dose Response HTS to Identify Activators of Luciferase Translation or Activity in H4 […] Cells. [Related pubchem assays: 1829 (Project Summary), 1814 (Primary HTS)]. Type of test: functional.
Test [4] deals with T1, Rac GTPase-activating protein 1 (Homo sapiens, UniProt Q9H0H5).
T1 sequence (Q9H0H5 whole entry): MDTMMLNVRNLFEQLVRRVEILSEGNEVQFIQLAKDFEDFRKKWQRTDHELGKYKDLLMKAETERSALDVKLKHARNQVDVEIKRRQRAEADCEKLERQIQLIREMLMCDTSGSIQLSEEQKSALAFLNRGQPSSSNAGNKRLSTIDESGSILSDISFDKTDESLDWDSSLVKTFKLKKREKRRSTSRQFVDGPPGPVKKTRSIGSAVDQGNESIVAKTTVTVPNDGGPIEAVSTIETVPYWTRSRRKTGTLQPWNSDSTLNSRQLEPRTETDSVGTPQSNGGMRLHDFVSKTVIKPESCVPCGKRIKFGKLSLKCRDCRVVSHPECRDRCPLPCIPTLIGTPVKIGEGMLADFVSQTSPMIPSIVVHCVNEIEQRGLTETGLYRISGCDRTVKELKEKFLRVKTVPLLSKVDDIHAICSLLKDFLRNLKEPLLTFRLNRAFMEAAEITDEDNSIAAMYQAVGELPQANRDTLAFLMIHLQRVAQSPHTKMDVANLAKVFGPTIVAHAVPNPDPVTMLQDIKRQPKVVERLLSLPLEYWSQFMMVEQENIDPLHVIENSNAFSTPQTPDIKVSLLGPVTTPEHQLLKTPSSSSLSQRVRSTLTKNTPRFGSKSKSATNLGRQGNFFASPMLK
Put plainly: blockers of MgcRacGAP-driven Rac1 GTP hydrolysis – biochemical, ADP Hunter fluorescence, primary and confirmatory, confirmation (AID 624330). Type of test: functional.

Test [5] deals with T2, Protein RecA (Mycobacterium tuberculosis, UniProt P9WHJ3).
T2 sequence (P9WHJ3 whole entry): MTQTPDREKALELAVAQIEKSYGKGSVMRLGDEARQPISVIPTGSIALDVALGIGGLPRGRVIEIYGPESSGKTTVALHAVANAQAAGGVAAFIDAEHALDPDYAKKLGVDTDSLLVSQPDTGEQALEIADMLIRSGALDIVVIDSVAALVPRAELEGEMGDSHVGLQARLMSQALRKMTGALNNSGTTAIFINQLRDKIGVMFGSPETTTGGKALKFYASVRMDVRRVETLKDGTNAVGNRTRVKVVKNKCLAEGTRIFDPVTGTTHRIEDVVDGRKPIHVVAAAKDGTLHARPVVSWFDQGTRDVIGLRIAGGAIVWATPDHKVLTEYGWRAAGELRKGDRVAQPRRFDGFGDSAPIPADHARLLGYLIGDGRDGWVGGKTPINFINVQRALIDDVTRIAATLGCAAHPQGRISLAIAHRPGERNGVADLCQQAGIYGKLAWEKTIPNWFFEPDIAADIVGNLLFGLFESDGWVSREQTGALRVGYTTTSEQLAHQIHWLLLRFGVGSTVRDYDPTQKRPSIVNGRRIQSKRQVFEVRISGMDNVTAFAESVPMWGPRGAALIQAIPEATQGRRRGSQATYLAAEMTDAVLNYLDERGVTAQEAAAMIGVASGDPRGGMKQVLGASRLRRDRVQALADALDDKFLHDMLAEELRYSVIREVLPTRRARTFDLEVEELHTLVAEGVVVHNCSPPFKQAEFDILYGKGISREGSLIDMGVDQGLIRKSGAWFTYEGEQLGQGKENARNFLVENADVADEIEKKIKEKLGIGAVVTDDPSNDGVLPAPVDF
In words: Fluorescence Cell-Free Homogeneous Dose Retest to Identify Inhibitors of RecA-Intein Splicing Activity. [Related pubchem assays (depositor defined):AID2097, AID2223, AID489010, AID492950]. Type of test: functional.

For test [6], the target named is T3, Replicative DNA helicase DnaB (Mycobacterium tuberculosis, UniProt P9WMR3).
T3 sequence (P9WMR3 whole entry): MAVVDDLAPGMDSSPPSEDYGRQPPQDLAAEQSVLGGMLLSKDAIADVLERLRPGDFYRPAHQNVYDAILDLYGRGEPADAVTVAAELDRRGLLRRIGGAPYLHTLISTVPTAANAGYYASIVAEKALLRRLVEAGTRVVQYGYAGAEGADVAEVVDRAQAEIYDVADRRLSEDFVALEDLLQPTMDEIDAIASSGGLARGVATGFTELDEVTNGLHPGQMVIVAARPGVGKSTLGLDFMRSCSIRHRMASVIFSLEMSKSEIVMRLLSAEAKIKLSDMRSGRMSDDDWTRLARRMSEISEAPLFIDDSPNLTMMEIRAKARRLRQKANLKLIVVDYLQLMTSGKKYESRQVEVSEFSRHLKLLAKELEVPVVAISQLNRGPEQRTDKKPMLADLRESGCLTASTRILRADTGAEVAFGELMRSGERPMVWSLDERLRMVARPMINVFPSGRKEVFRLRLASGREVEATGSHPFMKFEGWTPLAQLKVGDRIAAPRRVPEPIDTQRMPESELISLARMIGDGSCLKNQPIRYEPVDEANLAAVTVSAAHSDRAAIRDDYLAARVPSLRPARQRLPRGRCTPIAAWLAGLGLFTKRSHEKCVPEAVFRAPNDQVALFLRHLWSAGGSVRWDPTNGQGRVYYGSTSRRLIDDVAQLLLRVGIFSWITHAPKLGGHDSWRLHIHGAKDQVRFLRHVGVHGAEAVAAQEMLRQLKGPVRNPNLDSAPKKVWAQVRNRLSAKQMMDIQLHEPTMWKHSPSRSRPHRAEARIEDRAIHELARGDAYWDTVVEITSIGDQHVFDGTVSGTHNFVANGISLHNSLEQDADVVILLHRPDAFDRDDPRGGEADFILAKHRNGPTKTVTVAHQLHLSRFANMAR
In words: DnaB intein splicing inhibitors, dose response, biochemical, cell-free fluorescence (AID 449749). Type of test: functional.

Test [7] can be described thus: Luminescence Cell-Based Dose Retest to Confirm Inhibitors of Cancer Stem Cells. [Related pubchem assays (depositor defined):AID2717, AID2721]. Type of test: functional. The following applies: Homo sapiens.
Test [8] can be described thus: microbe, parasite or virus in culture. Type of test: functional. The following applies: Mycobacterium tuberculosis.
Test [9] in a line: Trypanosoma cruzi growth suppression in host cells – NIH3T3 host cells, beta-gal luminescence, confirmation (AID 2044).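 Also: intracellular parasites grown in NIH/3T3 mouse fibroblasts as host cells; luminescent beta-galactosidase reporter signal from transgenic T. cruzi replicating inside host cells; inhibitors lower the luminescence signal.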 Type of test: functional, cell-based.
The nature of test [10]: NIH3T3 cell viability loss – ATP luminescence, mouse fibroblasts, counter-screen, dose response (AID 2010).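 Also: cells exposed to compound for about 90 hours before reading.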 Type of test: functional, cell-based. On the technique in general: A counterscreen serves to expose hits that act by an unwanted route or on another target.
Test [11] deals with H9c2. In words: cells. Type of test: functional, cell-based. The following applies: Rattus norvegicus, H9c2, Myocardium.

The source of these data is ChEMBL document CHEMBL1201862, “PubChem BioAssay data set” (2004).

The source made the active and inactive calls. Rule as the data show it, for most assays here: actives have a measured EC50 and inactives only a lower limit.

Consider `Brc1ccc(C2=NC(Cc3ccccc3)CO2)cc1` (stereo unspecified), for which the concentration giving a half-maximal response (EC50) is 7.48 µM (active) in [1], 3.58 µM (active) in test [2] and 3.81 µM (active) in test [3].
In the case of `COc1cccc(CN2CCN(Cc3cccc(Oc4ccccc4)c3)CC2)c1OC`, in [4], the IC50 was 93.1 µM (active).
As for `OCc1ccc[n+](/C(C([S-])=Nc2ccc(SC(F)F)cc2)=C(/O)c2ccc(Cl)s2)c1`, the results for the EC50 in test [1], in test [2] and in [3] were 18.2 µM (active), 13.4 µM (active) and 14.2 µM (inconclusive), respectively.
For `COc1cc(C(=O)CSc2nnc(-c3ccc(O)cc3)n2CC2CCCO2)ccc1NC(C)=O` (stereo unspecified), in test [5], the EC50 is > 380 µM (inactive). For the same compound, the AC50 in test [6] is > 380 µM (inactive).
Regarding `O=C(Nc1ccc(O)cc1)c1ccccc1OCc1ccccc1`, the IC50 in test [4] is 30.1 µM (active).
As to `NC(=O)[C@H](Cc1cc2ccccc2s1)NC(=O)[C@@H]1CC2(CC(c3cccc(NC(=O)[C@@H]4CCC(=O)N4)c3)=NO2)CN1C(=O)/C=C/c1c(F)cccc1Cl` (stereo partly specified), the 50% effective concentration (EC50) in test [5] is 168 µM (active). In addition, in test [6], the AC50 was 20 µM (active).
The like results for `O=C(CSCc1cc(O)n[nH]1)Nc1ccc(F)cc1` were, in that order, 1.74 µM (active) and 4.04 µM (active).
Turning to `COc1ccc(S[C@@H](CCN2CC[C@H](NC(=O)OCc3ccccc3)CCC2=O)c2ccccc2)cc1`, the AC50 in test [7] was 3.09 µM (active).
`O=C(NCc1nnnn1-c1ccc(F)cc1)c1ccc([N+](=O)[O-])o1`: the half-maximal effective concentration (EC50) is 29 µM (active) in [1], 8.58 µM (active) in test [2] and > 60 µM (not active) in [3]. Also, in test [8], the CC50 was 19.3 µM (active).
As to `Cc1ccc(CNc2cnn(C34CC5CC(CC(C5)C3)C4)c(=O)c2Cl)cc1`, the half-maximal activity concentration (AC50) in [7] is 1.18 µM (active).
Turning to `CC(=O)N(CCC(Cc1ccccc1)c1ccc2c(c1)OCO2)Cc1ccccc1F` (stereo unspecified), the half-maximal effective concentration (EC50) in test [5] was 5.78 µM (active). Also, the AC50 in test [6] is 3.39 µM (active).
Turning to `Cc1ccccc1Nc1nc(N)nc(COC(=O)c2ccccc2)n1`, the EC50 in test [1] was 25.7 µM (active); in [2], 40.5 µM (active); in [3] it was 25.1 µM (active).
In the case of `Cc1cc(NC(=O)/C=C/c2ccc(Cl)cc2)no1`, the half-maximal activity concentration (AC50) in test [7] is 22.8 µM (active).
`COc1ccc(/C=C2/C(=O)N(c3ccccc3)N=C2C)cc1OC`: the EC50 in test [5] was 1.46 µM (active). Further, the AC50 in test [6] was 3.78 µM (active).
For `Cc1ccc2c(c1)c1c(n2CC(O)CN2CCCCCC2)CCCC1` (stereo unspecified), in that order: > 380 µM (inactive) and > 380 µM (inactive).
On to `CCOc1ccccc1N(C(=O)Nc1ccc(Cl)cc1)C1=NCCS1`, for which the half-maximal activity concentration (AC50) in [7] is 5.46 µM (active).
Consider `O=C(Nc1ccccc1Cl)Oc1ccc(-c2ccccc2)cc1`, for which, in [4], the IC50 was 11.3 µM (active).
Regarding `O=C(O)c1cc(NN=C2CCN(Cc3ccccc3)CC2)ccc1Cl`, the concentration for a half-maximal effect (EC50) was 18.7 µM (active) in [1], > 120 µM (not active) in test [2] and 22.9 µM (active) in test [3].
The like results for `Cc1ccc(-c2ccc(NC(=O)C3C4C=CC(C4)C3C(=O)O)cc2)o1` (stereo unspecified) were, in that order, > 120 µM (not active), 2.07 µM (active) and 33.5 µM (active).
For the compound `NC(=O)CC(NC(=O)Cc1ccc(Br)cc1)c1ccc(NC2CC3CCC2C3)c([N+](=O)[O-])c1` (stereo unspecified), the AC50 in test [7] is 6.22 µM (active).
Same read-out and setting: the value for `CCOC(=O)C(=O)NNc1ccc(F)cc1` was 0.837 µM (active).
In the case of `O=C(NNC(=O)c1ccc([N+](=O)[O-])o1)c1ccccc1`, the concentration for a half-maximal effect (EC50) is 0.13 µM (active) in test [9], 13.5 µM (active) in test [5] and > 60 µM (not active) in [10]. Besides, in [6], the AC50 is 23.5 µM (active).
In the case of `CN1C2=CC=CC=CC2=[N+](C)C12C([N+](=O)[O-])=CC(=[N+]([O-])[O-])C=C2[N+](=O)[O-]` (stereo unspecified), the EC50 in [1], in [2] and in test [3] was > 120 µM (not active) throughout.
As for `O=C(CN1C(=O)S/C(=C\c2ccc(O)cc2)C1=O)c1ccccc1`, the EC50 in test [1] is 26 µM (active); in test [2], 6.38 µM (active); in test [3], 6.77 µM (active).
Take `O=C(NCCCNC(=O)c1nc[nH]c1C(=O)Nc1cccc(Cl)c1)c1nc[nH]c1C(=O)Nc1cccc(Cl)c1`: the IC50 in test [11] was > 79 µM (inactive). In addition, the AC50 in test [7] was 3.78 µM (active).
For `COc1ccc2oc(=O)c(-c3nc4ccccc4o3)cc2c1`, the 50% effective concentration (EC50) in test [1] was 24.1 µM (active); in test [2], 3.5 µM (active); in test [3] it was 17.2 µM (active).
For `CC(/C=N/n1c(S)nnc1C1CCCCC1)=C\c1ccccc1`, in [8], the CC50 is > 40 µM (active). For the same compound, the concentration at half-maximal activity (AC50) in test [7] was 4.26 µM (active).
Regarding `Cn1c(N)c(-c2nc3cccnc3n2C)sc1=S`, the concentration for a half-maximal effect (EC50) in [1] was > 120 µM (not active); in test [2] it was > 120 µM (not active); in [3], 9.72 µM (active).
As to `Cc1nc(S(=O)(=O)N(C)Cc2ccccc2)c(C#N)c(C)c1Cl`, the EC50 in test [1] is > 120 µM (not active); in [2] it was 5.83 µM (active); in test [3], 60.4 µM (active).
The like results for `CC1CCCC2(C1)N=C(S)c1c(sc3c1CCCC3)N2` (stereo unspecified) were, in that order, > 120 µM (not active), > 120 µM (not active) and > 120 µM (not active).

As usually defined, the EC50 is the concentration giving half of the maximal effect. For orientation: IC50 means the concentration needed to halve the response being measured. In general, AC50 refers to the midpoint of the concentration-response curve, whichever way the signal moves.
